Results: US5004780A, “Cyclic monoperoxyketal” (priority 1988, dated 1991)

What was measured:
Assay type in all cases: physicochemical
[1] = Thermal decomposition product of peroxyketal in cumene (gas chromatography)
Description: Each of the thermal decomposition reaction solutions of Example 7 and Comparative example 1 was analyzed by means of a gas chromatography to measure the thermal decomposition products. The number of mols of the decomposition products per 1 mol of each of the decomposed peroxyketals was calculated. The obtained results are shown in the following Table 3 as Example 16 and Comparative example 7.

[2] = Amounts of ketone and alcohol formed by the thermal decomposition of peroxyketal in cumene; details: 100° C.
Description: The amount of ketone and that of alcohol contained in each of the thermal decomposition solutions obtained in Examples 6-12 and Comparative examples 1-6 were measured by means of a gas chromatography. The numbers of mols of ketone and alcohol per 1 mol of each of decomposed cyclic monoperoxyketal or cyclic bisperoxyketal were measured. The obtained results are shown in the following Table 4 as Examples 17-22 and Comparative examples 8-13.

[3] = Solubility of peroxyketal in unsaturated polyester resin; parameters: key: .circle.: Complete dissolving; Δ: Fairly long time was required in dissolving; X: Incomplete dissolving (white turbid)
[4] = Thermal decomposition of peroxyketal in cumene at 100° C.; details: 0.05 mol/l; for Half-life period: 50000 µM
Description: (§1) A 0.05 mol/l cumene solution of each of the cyclic monoperoxyketals of the present invention produced in Examples 1-6 and the cyclic bisperoxyketals produced in the same manner as described in Examples 1-6 was prepared. A given amount of each sample solution was sampled into a glass ampule, and the sample solution was deaerated by a freezing method, and then the ampule was sealed under vacuum. Then, the ampules were put in a thermostat kept at 100° C., and taken out from the thermostate every predetermined times, and the concentration of peroxyketal was measured by a gas chromatography or liquid chromatography. The decomposition rate constant and half-life period of a sample peroxyketal were calculated from the disappearing rate of the peroxyketal. The obtained results are shown in the following Table 1 as Examples 6-12 and Comparative examples 1-6.

[5] = Thermal decomposition of 1-methoxy-1-(1,1-dimethylethylperoxy)cyclohexane at 100° C. in n-hexane, n-dodecane or n-hexadecane; details: for Half-life period: 50000 µM
Description: as §1
Thermal decomposition of 1-methoxy-1-(1,1-dimethylethylperoxy)cyclohexane at 100° C. was carried out in the same manner as described in Example 7, except that n-hexane, n-dodecane or n-hexadecane was used as a solvent in place of cumene, and the thermal decomposition rate constant and half-life period of the cyclic monoperoxyketal in these solvents were measured.

[6] = n-hexadecane, viscosity 0.900 cp

Row | SMILES | Thermal decomposition product: 1,1-dimethylperoxyhexanoate ([1]; 100° C., 1,1-dimethylperoxyhexanoate) | Thermal decomposition product: biscumyl ([1]; 100° C.) | Thermal decomposition product: t-butanol ([1]; 100° C.) | Ratio of ketone to alcohol [2] | Thermal decomposition product: Alcohol [2] | Thermal decomposition product: Ketone [2] | Solubility [3] | Decomposition rate constant [4] | Half-life period [4] | Thermal decomposition product: acetone ([1]; 100° C., acetone) | Thermal decomposition product: methyl hexanoate ([1]; 100° C., methyl hexanoate) | Decomposition rate constant ([5]; n-dodecane, viscosity 0.520 cp) | Half-life period ([5]; n-dodecane, viscosity 0.520 cp) | Decomposition rate constant [5, 6] | Half-life period [5, 6] | Decomposition rate constant ([5]; n-hexane, viscosity 0.168 cp) | Half-life period ([5]; n-hexane, viscosity 0.168 cp) | Thermal decomposition product: Ketone (Acetophenone is formed) [2]
1 | CC(C)(C)OOC1(OOC(C)(C)C)CCCCC1 [Comparative example 1, 1,1-bis(1,1-dimethylethylperoxy)cyclohexane, reference compound] | 0.35 Number of mols per 1 mol of de | 0.69 Number of mols per 1 mol of de | 1.06 Number of mols per 1 mol of de | 0.01 | 1.37 mols per 1 mol of decomposed p | 0.02 mols per 1 mol of decomposed p | .circle. | 5.06 ×10^5 (1/sec) | 3.81 h |  |  |  |  |  |  |  |  | 
2 | COC1(OOC(C)(C)C)CCCCC1 [Example 7, 1-methoxy-1-(1,1-dimethylethylperoxy)cyclohexane] |  | 0.50 Number of mols per 1 mol of de | 0.47 Number of mols per 1 mol of de | 0.21 | 0.47 mols per 1 mol of decomposed p | 0.10 mols per 1 mol of decomposed p | .circle. | 6.79 ×10^5 (1/sec) | 2.84 h | 0.10 Number of mols per 1 mol of de | 0.59 Number of mols per 1 mol of de | 4.71 ×10^5 (1/sec) | 4.09 h | 4.23 ×10^5 (1/sec) | 4.55 h | 5.13 ×10^5 (1/sec) | 3.75 h | 
3 | CCC(C)(C)OOC1(OC)CCCCC1 [Example 8, 1-methoxy-1-(1,1-dimethylpropylperoxy)cyclohexane] |  |  |  | 5.71 | 0.14 mols per 1 mol of decomposed p | 0.80 mols per 1 mol of decomposed p | .circle. | 10.58 ×10^5 (1/sec) | 1.82 h |  |  |  |  |  |  |  |  | 
4 | CCCC(C)(C)OOC1(OC)CCCCC1 [Example 9, 1-methoxy-1-(1,1-dimethylbutylperoxy)cyclohexane] |  |  |  | 2.26 | 0.31 mols per 1 mol of decomposed p | 0.70 mols per 1 mol of decomposed p | .circle. | 11.20 ×10^5 (1/sec) | 1.72 h |  |  |  |  |  |  |  |  | 
5 | COC1(OOC(C)(C)CC(C)(C)C)CCCCC1 [Example 10, 1-methoxy-1-(1,1,3,3-tetramethylbutylperoxy)cyclohexane] |  |  |  | 79.0 | 0.01 mols per 1 mol of decomposed p | 0.79 mols per 1 mol of decomposed p | .circle. | 28.40 ×10^5 (1/sec) | 0.68 h |  |  |  |  |  |  |  |  | 
6 | COC1(OOC(C)(C)c2ccccc2)CCCCC1 [Example 11, 1-methoxy-1-(1-methyl-1-phenylethylperoxy)cyclohexane] |  |  |  | 0.42 | 0.60 mols per 1 mol of decomposed p |  | .circle. | 11.32 ×10^5 (1/sec) | 1.70 h |  |  |  |  |  |  |  |  | 0.25 mols per 1 mol of decomposed p
7 | CCCC(C)(C)OOC1(OC)CC(C)CC(C)(C)C1 (centres unmarked) [Example 12, 1-methoxy-1-(1,1-dimethylbutylperoxy)-3,3,5-trimethylcyclohexane] |  |  |  | 2.27 | 0.30 mols per 1 mol of decomposed p | 0.68 mols per 1 mol of decomposed p | .circle. | 11.25 ×10^5 (1/sec) | 1.71 h |  |  |  |  |  |  |  |  | 
8 | CCC(C)(C)OOC1(OOC(C)(C)CC)CCCCC1 [compound 2, 1,1-bis(1,1-dimethylpropylperoxy)cyclohexane, reference compound] |  |  |  | 2.81 | 0.26 mols per 1 mol of decomposed p | 0.73 mols per 1 mol of decomposed p | Δ | 7.32 ×10^5 (1/sec) | 2.63 h |  |  |  |  |  |  |  |  | 
9 | CCCC(C)(C)OOC1(OOC(C)(C)CCC)CCCCC1 [compound 3, 1,1-bis(1,1-dimethylbutylperoxy)cyclohexane, reference compound] |  |  |  | 1.28 | 0.65 mols per 1 mol of decomposed p | 0.83 mols per 1 mol of decomposed p | Δ | 7.48 ×10^5 (1/sec) | 2.57 h |  |  |  |  |  |  |  |  | 
10 | CC(C)(C)CC(C)(C)OOC1(OOC(C)(C)CC(C)(C)C)CCCCC1 [compound 4, 1,1-bis(1,1,3,3-tetramethylbutylperoxy)cyclohexane, reference compound] |  |  |  | 1.21 | 0.24 mols per 1 mol of decomposed p | 0.29 mols per 1 mol of decomposed p | X | 19.83 ×10^5 (1/sec) | 0.97 h |  |  |  |  |  |  |  |  | 
11 | CC(C)(OOC1(OOC(C)(C)c2ccccc2)CCCCC1)c1ccccc1 [compound 5, 1,1-bis(1-methyl-1-phenylethylperoxy)cyclohexane, reference compound] |  |  |  | 0.41 | 1.00 mols per 1 mol of decomposed p |  | .circle. | 8.24 ×10^5 (1/sec) | 2.34 h |  |  |  |  |  |  |  |  | 0.41 mols per 1 mol of decomposed p
12 | CCCC(C)(C)OOC1(OOC(C)(C)CCC)CC(C)CC(C)(C)C1 (centres unmarked) [compound 6, 1,1-bis(1,1-dimethylbutylperoxy)-3,3,5-trimethylcyclohexane, reference compound] |  |  |  | 1.25 | 0.64 mols per 1 mol of decomposed p | 0.80 mols per 1 mol of decomposed p | Δ | 7.50 ×10^5 (1/sec) | 2.57 h |  |  |  |  |  |  |  |  | 
13 | CC(C)(C)OOC(=O)c1ccccc1 [compound 28, 1,1-dimethylethyl peroxybenzoate] |  |  |  |  |  |  | .circle. |  |  |  |  |  |  |  |  |  |  | 
